According to patent US8993527B2, “Methods, compositions, and formulations for preventing or reducing adverse effects in a patient” (Pericor Therapeutics, Inc., priority 2005, dated 2015):

Tests used:
myocardial infarct = experiment: Myocardial infarct size in rats after coronary artery ligation; type: in vivo, rat; conditions: bolus plus osmotic mini-pump infusion, three weeks, vs saline
Text: The animals were continuously exposed by infusion of either AICA riboside in saline or saline using osmotic mini-pumps well known to those in the art. After three weeks, the rats were sacrificed and infarct size quantitated by planimarizing stained sections of fixed hearts.

[1] = tested on: patients undergoing CABG surgery; type: in vivo; conditions: 0.05 mg/kg/min
ischemic myocardium = type: in vivo, dog; conditions: vs saline-treated animals, 5 and 60 minutes of ischemia
Text: Thirteen mongrel dogs were anesthetized with phenobarbital. […] C.V. Dis. 20; 55 (1977).

[2] = tested on: isoproterenol (isuprel)-induced arrhythmias; experiment: Suppression of isoproterenol (isuprel)-induced arrhythmias; type: in vivo, rat; conditions: 1000 mg/kg intraperitoneally
Experimental: Five minutes later both animals were anesthetized with 330 mg/kg of chloral hydrate injected intraperitoneally. Then a single EKG lead was attached to each rat for simultaneous recording of the paired rats' electrocardiograms. To produce arrhythmia, each rat was injected subcutaneously with isuprel […].
Beginning 30 minutes after isuprel introduction, the electrocardiograph recording paper speed was run (5 cm/sec) for 10 minutes to count the arrhythmic beats of both animals.

[3] = target: T1, NBTI-specific adenosine transport site (UniProt O54698); experiment: [3H]-NBTI binding assay; conditions: read-out: ED50 (50% displacement of bound [3H]-NBTI); 0.5 mg neuronal membrane protein, 0.5 nM [3H]-NBTI, 30 minutes
T1 sequence (O54698 1-457): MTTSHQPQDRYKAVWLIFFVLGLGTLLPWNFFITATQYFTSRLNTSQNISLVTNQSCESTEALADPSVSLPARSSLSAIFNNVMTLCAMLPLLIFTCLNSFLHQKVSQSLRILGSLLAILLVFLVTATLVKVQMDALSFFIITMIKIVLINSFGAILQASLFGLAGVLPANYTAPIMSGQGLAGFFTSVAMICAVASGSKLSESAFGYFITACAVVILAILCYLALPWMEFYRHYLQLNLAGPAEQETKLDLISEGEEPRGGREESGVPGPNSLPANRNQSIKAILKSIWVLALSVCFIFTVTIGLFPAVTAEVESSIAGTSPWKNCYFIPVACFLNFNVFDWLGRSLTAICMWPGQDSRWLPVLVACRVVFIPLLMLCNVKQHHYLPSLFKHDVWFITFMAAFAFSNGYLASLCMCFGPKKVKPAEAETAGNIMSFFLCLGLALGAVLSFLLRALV
Experimental: Increasing concentrations of the test compounds were incubated for 30 minutes with 0.5 mg neuronal membrane protein together with 0.5 nM [^3 H]-NBTI in a Tris buffer (pH 7.4) at room temperature. The assays were quenched and membranes collected by rapid filtration. Filters were then solubilized and radioactivity determined by scintillation counting.

[4] = Phase 2 CABG trial: plasma AICA riboside concentrations and clearance; type: in vivo; conditions: human, intravenous, low and high doses, pre- and post-bypass, read-out: total plasma clearance (CLp) (converted)
Experimental: 10. Plasma Levels. […] Individual values and group means were tabulated and drug clearance calculated. Dose proportionality was assessed.
The data are also presented graphically in FIG. 18.

[5] = tested on: adenylosuccinase deficiency (autism); experiment: Therapeutic trial of oral AICA riboside in patients with adenylosuccinase deficiency (autism); type: in vivo, human
Text: Following authorization, therapeutic trials with AICA riboside were started in two patients with adenylosuccinase deficiency (autism). […] On Day 55, both patients were briefly readmitted for clinical, biochemical and psychiatric evaluation. […] Treatment was maintained until Day 71, and arrested at that date. […] A correct assessment of the renal loss of the nucleoside could not be obtained. […] The following parameters were found normal before and during the trial treatment with AICA riboside: red blood cell count, white blood cell count, platelet and reticulocyte counts; leukocyte differentiations; hematocrit, ionogram, Ca, phosphate, urea, creatinine, uric acid, cholesterol, lipids, SGOT, SGPT, CPK, glucose, lactate and ammonia.

NC(=O)c1ncn([C@@H]2O[C@H](CO)[C@@H](O)[C@H]2O)c1N [1 (1-110), 5-amino-1-β-D-ribofuranosyl-imidazole-4-carboxamide]
reduction of infarct size (myocardial infarct): 33%
effect of low-dose acadesine on outcome [1]: no significant effect on any outcome measure
regional myocardial blood flow to the ischemic myocardium (ischemic myocardium): significantly greater
ventricular fibrillation [2]: complete suppression
EC50 [3]: > 1000 µM
clearance [4]: ~1.2 L/h/kg
side effects ([5]; oral 5 mg/kg/day up to 2×10 mg/kg/day): No clinical or biochemical side effects were observed
AICA riboside in plasma and CSF ([5]; oral, all dosages used): could not be detected
autistic features after two months of continuous administration ([5]; younger patient, older patient without modification): clear-cut improvement
